These results are taken from patent US4863902A, “Treatment of cancer” (Wakunaga Seiyaku Kabushiki Kaisha, priority 1985, dated 1989).

The test system of assay [1] is MX-1 (human breast cancer). The experiment in a line: Tumor weight of transplanted human breast cancer in nude mice. The assay is classed as in vivo, mouse (human tumor xenograft). Conditions: Table 4, adriamycin 10 mg/Kg, hEGF 100 μg/Kg on days 1, 8, 10 and 13, average ± standard error of 8 mice. The protocol:
After BALB/c AJcl-nu strain male nude mice were preliminarily fed for one week in an aseptic clean rack maintained at a constant temperature, (23±0.5°
C.) and a constant humidity (60±5%), those which appeared to be healthy weighing around 20 g were provided for the present experiment in 8 mice per group. The mice employed in the present experiments hereinafter were fed under the above environment.
MX-1 (human breast cancer) was cut into sizes of about 1 mm square and transplanted subcutaneously on the right side of mouse axilla by a cell transplanting needle (trocker). 17 days after transplantation, the size of tumor, namely the longer diameter (a mm) and shorter diameter (b mm) were measured and the tumor weight was calculated by the following formula similarly as for Colon 26.
(§1) Tumor weight (mg)=ab^2 /2
Before carrying out experiments, tumor weights were measured immediately before administration of the compounds (the day 17 after tumor transplantation) and the mice were grouped into 3 groups by use of random numbers so that there may be no difference in average value of the tumor weights on initiation of experiments between the respective groups to make even the average values of tumor weights of the respective groups, and thereafter the compounds were administered to the respective groups.
Administration of the compounds was conducted 4 times as the total on the day 1, the day 8, the day 10 and the day 13. The test solutions were as shown below.
A general note: Xenograft models place foreign cells or tissue in a host animal.

For assay [2], the system named is Colon adenocarcinoma 26 (mouse colon adenocarcinoma). Briefly: Tumor weight of transplanted Colon adenocarcinoma 26 in BALB/c mice. The format is in vivo. Particulars: for antitumor effect potentiating action, same experiment as Experimental Example 13: in combination with cyclophosphamide in place of 5-FU. The protocol: After BALB/c mice were preliminarily fed in a thermostat (23°±0.5° C.), humidistat (60±5%) room for 1 week, those which appear to be healthy weighing 18-20 g were provided for the present experiment in 6-12 mice per 1 group.
Colon adenocarcinoma 26 (mouse colon adenocarcinoma) was minced into pieces and about 0.1 to 0.2 ml thereof was transplanted subcutaneously on the right side of mouse abdomen by a cell transplanting needle (trocker). Six days after transplantation, the size of tumor, namely longer diameter (a mm) and shorter diameter (b mm) of tumor were measured and the tumor weight was calculated according to the formula shown below [Instruction 14 (NCI) 1980].
as §1
Before carrying out experiments, tumor weights were measured immediately before administration of the compounds and the mice were grouped into 3 groups by use of random numbers so that there may be no difference in average value of the tumor weights on initiation of experiments between the respective groups to make even the average values of tumor weights of the respective groups, and thereafter the compounds were administered to the respective groups.
In this FIGURE, the axis of abscissa indicates the experimental days with the day of compound administration being the day 1, and the axis of ordinate indicates tumor cell growth ratio which is the ratio of the tumor weight after elapse of the respective days relative to the tumor weight on the day 1 as being 100%.

The subject of assay [3] is mouse ovarian tumor M5076. The experiment in a line: Tumor weight of solid tumor of mouse ovarian tumor in BDF1 mice. The format is in vivo. Particulars: used together with mytomycin C in place of cisplatin. The method, then: BDF1 male mice were employed. The feeding conditions were the same as in Experimental Example 1.
Mouse ovarian tumor M5076 was transplanted subcutaneously at the axialla of mouse in 1-2×10^6 cells per mouse. 12 days after transplantation, the size of tumor was measured according to the same method as in Experimental Example 1 (Colon 26) and the tumor weight was calculated.
The grouping operation on initiation of Experiments was conducted in the same manner as in Experimental Example 1. The compounds were administered in the same manner as in Experimental Example 9.
The experiment was carried out in the samme manner as in Experimental Examples 1, 7 and as in Experimental Example 17 for others.

The subject of assay [4] is Colon adenocarcinoma 38 (mouse colon adenocarcinoma). The experiment in a line: Tumor weight of transplanted Colon adenocarcinoma 38 in C57BL/6 mice. The assay is classed as in vivo. Particulars: for antitumor effect of (a) + (b) (quantity not headed; method of Experimental Example 4): Table 21. The method, then: Colon adenocarcinoma 38 (mouse colon adenocarcinoma) was minced into pieces and about 0.1 to 0.2 ml thereof was transplanted subcutaneously on the right side of mouse abdomen by a cell transplanting needle (trocker). Eleven days after transplantation, the size of tumor, namely longer diameter (a mm) and shorter diameter (b mm) of tumor were measured and the tumor weight was calculated according to the formula shown below [Instruction 14 (NCI) 1980].
as §1
In the Table, days indicate the experimental days with the day of compound administration being as the day 1, and the tumor weight immediately before administration of compound of day 1 is made 100. The respective values show the average value ± standard error of case numbers of 10 to 20, in the Table, the marks of (*), * and *** indicate the statistical significance difference of the combined administration group relative to the 5-FU single administration group (the definition of P is as defined above).

Another assay addresses receptor (Homo sapiens, UniProt P00533). Particulars: J. Biol. Chem., 247, 7659 (1972); cited from earlier work.
The mark [5] stands for this setting: (a) Adriamycin, Mixed injection.
Where [6] appears, read: (a) Adriamycin, Separate injection.
[7] abbreviates: (a) Cisplatin, Separate injection.

Regarding `COc1cccc2c1C(=O)c1c(O)c3c(c(O)c1C2=O)C[C@@](O)(C(=O)CO)C[C@@H]3O[C@H]1C[C@H](N)[C@H](O)[C@H](C)O1` [Adriamycin, adriamycin], the “Tumor weight (day 1 = 100)” value in assay [1] (day 4) is 162.0 ± 5.4; in assay [1] (day 7) it was 221.8 ± 20.1; in assay [1] (day 11), 291.8 ± 21.3; in assay [1] (day 14), 256.9 ± 12.7.

As for “hEGF-II: fragment lacking two amino acid residues on the C-terminal side of hEGF (NSDSECPLSHDGYCLHDGVCMYIEALDKYACNCVVGYIGERCQYRDLKWWE; not fully specified; Epidermal growth factor; UniProt P01133 971-1021, looked up, fragment)”, the “antitumor effect potentiating action, same experiment as Experimental Example 13” value in assay [2] is given as “the same results”. For the same compound, the “antitumor action potentiating effect, same experiment as Experimental Example 8” value in assay [2] (used in place of hEGF in combination with 5 mg/Kg cisplatin) is “the same results”. The “antitumor effect potentiation, same experiment as Experimental Example 17” value in assay [3] is “the same results”. In addition, the “antitumor effect of (a) + (b) (quantity not headed; method of Experimental Example 4)” value was 105.6 in assay [4] (setting [5]); 103.3 in assay [4] (setting [6]); 102.3 in assay [4] ((a) Cisplatin, Mixed injection); 96.6 in assay [4] (setting [7]); 47.8 in assay [4] ((a) Tegafur, Mixed injection); 42.8 in assay [4] ((a) Tegafur, Separate injection). Also, the “tumor cell growth inhibition, same experiment as Experimental Example 4” value in assay [4] (used in place of hEGF in combination with 5-FU) was “the same results”. Moreover, the “tumor cell growth inhibition, same experiment as Experimental Example 14” value in assay [4] (used in place of hEGF in combination with Tegafur) was “the same results”. The “binding ability of receptor or biological activity” value in the assay with receptor was “the same as hEGF”.

As for “hEGF: human epidermal growth factor/urogastrone, 53 amino acid residues, three disulfide bonds”, the “antitumor effect potentiating action, same experiment as Experimental Example 13” value in assay [2] was “the same results”. Further, the “antitumor effect potentiation, same experiment as Experimental Example 17” value in assay [3] is on record as “the same results”. For the same compound, the “antitumor effect of (a) + (b) (quantity not headed; method of Experimental Example 4)” value worked out at 103.1 in assay [4] (setting [5]); 98.5 in assay [4] (setting [6]); 88.8 in assay [4] ((a) Cisplatin, Mixed injection); 80.3 in assay [4] (setting [7]).
